Experimental data taken from ChEMBL document CHEMBL1255186, “A novel 18F-labeled pyridyl benzofuran derivative for imaging of β-amyloid plaques in Alzheimer's brains” (Bioorg Med Chem Lett, 2010).
Activity calls are given as the source filed them. The rule behind the calls is not given here.

Key:
[1] = Displacement of [125I]IMPY from amyloid beta 1-42
[2] = system: Blood; assay: Biodistribution in mouse blood at 444 kBq/50 uL after 2 mins; type: ADME, organism-based; details: in vivo
[3] = system: Brain; assay: Biodistribution in mouse brain at 444 kBq/50 uL after 2 mins; type: ADME, organism-based; details: in vivo
[4] = system: Bone; assay: Biodistribution in mouse bone at 444 kBq/50 uL after 2 mins; type: ADME, organism-based, Bone element; details: in vivo
[5] = system: Blood; assay: Biodistribution in mouse blood at 444 kBq/50 uL after 10 mins; type: ADME, organism-based; details: in vivo
[6] = system: Brain; assay: Biodistribution in mouse brain at 444 kBq/50 uL after 10 mins; type: ADME, organism-based; details: in vivo
[7] = system: Bone; assay: Biodistribution in mouse bone at 444 kBq/50 uL after 10 mins; type: ADME, organism-based, Bone element; details: in vivo
[8] = system: Blood; assay: Biodistribution in mouse blood at 444 kBq/50 uL after 30 mins; type: ADME, organism-based; details: in vivo, 0.5 h
[9] = system: Brain; assay: Biodistribution in mouse brain at 444 kBq/50 uL after 30 mins; type: ADME, organism-based; details: in vivo, 0.5 h
[10] = system: Bone; assay: Biodistribution in mouse bone at 444 kBq/50 uL after 30 mins; type: ADME, organism-based, Bone element; details: in vivo, 0.5 h
[11] = system: Blood; assay: Biodistribution in mouse blood at 444 kBq/50 uL after 60 mins; type: ADME, organism-based; details: in vivo, 1 h
[12] = system: Brain; assay: Biodistribution in mouse brain at 444 kBq/50 uL after 60 mins; type: ADME, organism-based; details: in vivo, 1 h
[13] = system: Bone; assay: Biodistribution in mouse bone at 444 kBq/50 uL after 60 mins; type: ADME, organism-based, Bone element; details: in vivo, 1 h
[14] = system: Cortex; assay: Reduction of amyloid beta40 level in Tg2576 mouse cortex at 11.1 MBq; type: functional, tissue-based; details: 11.1 M, tested as the 18F-labelled form
[15] = species on record: Mus musculus; assay: Reduction of amyloid beta40 level in Tg2576 mouse entorhinal cortex at 11.1 MBq; type: functional, tissue-based; details: 11.1 M, tested as the 18F-labelled form
[16] = species on record: Mus musculus; assay: Reduction of amyloid beta40 level in Tg2576 mouse dentate gyrus at 11.1 MBq; type: functional, tissue-based; details: 11.1 M, tested as the 18F-labelled form
[17] = system: Hippocampus; assay: Reduction of amyloid beta40 level in Tg2576 mouse hippocampus at 11.1 MBq; type: functional, tissue-based; details: 11.1 M, tested as the 18F-labelled form

| SMILES | Ki [1] [nM] | Drug uptake [2] [% ID/g] | Drug uptake [3] [% ID/g] | Drug uptake [4] [% ID/g] | Drug uptake [5] [% ID/g] | Drug uptake [6] [% ID/g] | Drug uptake [7] [% ID/g] | Drug uptake [8] [% ID/g] | Drug uptake [9] [% ID/g] | Drug uptake [10] [% ID/g] | Drug uptake [11] [% ID/g] | Drug uptake [12] [% ID/g] | Drug uptake [13] [% ID/g] | Activity [14] | Activity [15] | Activity [16] | Activity [17] |
| --- | --- | --- | --- | --- | --- | --- | --- | --- | --- | --- | --- | --- | --- | --- | --- | --- | --- |
| CN(C)c1ccc(-c2cc3cc(OCCOCCOCC[18F])ccc3o2)cn1 | 0.9 | 2.83 | 5.16 | 1.61 | 2.13 | 3.75 | 1.33 | 1.76 | 2.78 | 1.11 | 1.98 | 2.44 | 1.42 | – | – | – | – |
| CN(C)c1ccc(-c2cc3cc(OCCOCCOCCF)ccc3o2)cn1 | – | – | – | – | – | – | – | – | – | – | – | – | – | Active | Active | Active | Active |
